Assay [1] has as its system acetic acid induced bladder hypermotility (frequency of bladder contraction reflexes). Briefly: Epidural infusion of bupivacaine in rat model of bladder pain, intravesical acetic acid infusion. Type of assay: in vivo. Particulars: epidural infusion 25 μg/day. Here is the method:
FIG. 6 is a graphic representation of epidural infusion of bupivacaine in rats treated with an intravesical infusion of acetic acid as described in Example 4. Baseline bladder activity was measured before epidural drug treatment. The columns and error bars represent the mean and SEM values of 10 rats per group. Asterisks indicate statistically significant dose effects compared to baseline as determined by post-hoc Dunnett Multiple Comparison Test.
(§1) An animal model that has been used frequently to study pelvic pain conditions is a rat model of bladder pain. In this model, a female rat was lightly anesthetized with isoflurane and a transurethral catheter was placed into the bladder. The catheter was connected to a pressure transducer so that the pressure within the bladder could be continuously monitored and recorded over time. Fluid was continuously infused into the bladder using a syringe pump at a rate of 0.1 mL/min to cause the bladder to contract repeatedly each time it became full. This is referred to as a volume-evoked micturition reflex or contraction. […]
In order to evaluate the effects of epidurally administered analgesics on normal and painful bladder activity (frequency of reflex bladder contractions), test drugs were continuously administered via an epidural catheter with the tip placed in the mid-lumbar epidural space. […] In the experiments depicted in FIGS. 5 and 6, the baseline bladder activity was measured before implanting the epidural infusion system, the infusion system was implanted on day 0 and cystometrograms were recorded on three consecutive days during which bupivacaine (25 μg/day) was infused into the lumbar epidural space.
Bupivacaine at 25 μg/day reduced acetic acid induced bladder hypermotility by approximately 3 fold on days 2 and 3. The frequency of bladder contraction observed during acetic acid infusion and epidural bupivacaine administration was similar to the baseline bladder activity measured during saline infusion (0.206±0.046 day 3 acetic acid and epidural bupivacaine vs 0.295±0.035 baseline saline).

In assay [2] the test system is normal bladder activity (frequency of reflex bladder contractions). The assay can be described thus: Epidural infusion of bupivacaine in rats, intravesical saline infusion (normal bladder activity, cystometrogram). The assay is classed as in vivo, rat. To be noted: epidural infusion 25 μg/day, saline infusion into bladder. Here is the method: FIG. 5 is a graphic representation of epidural infusion of bupivacaine in rats treated with an intravesical infusion of saline. Baseline bladder activity was measured before epidural drug treatment as described in Example 4. The columns and error bars represent the mean and SEM values of 10 rats per group. Asterisks indicate statistically significant dose effects compared to baseline as determined by post-hoc Dunnett Multiple Comparison Test.
as §1, with “contraction. A repeated series of bladder contractions (pressure spikes) over time was collected using this method. To mimic normal bladder activity, 0.9% saline was infused into the bladder; to mimic painful bladder activity, a dilute solution of acetic acid (0.5%) was infused into the bladder.” for “contraction.”

With `CCCCN1CCCCC1C(=O)Nc1c(C)cccc1C` (centres unmarked) [bupivacaine, 1-butyl-N-(2,6-dimethylphenyl)piperidine-2-carboxamide], the “frequency of bladder contraction reflexes vs baseline” value in assay [1] (0.5% acetic acid infusion into bladder, all three days) is listed as “significantly reduced”. Besides, the “frequency of bladder contraction” value in assay [1] (acetic acid infusion, day 3, mean ± SEM) is on record as 0.206±0.046 reflexes per min. For the same compound, the “reduction of acetic acid induced bladder hypermotility” value in assay [1] (days 2 and 3) is recorded as “approximately 3 fold”. For the same compound, in assay [2] (day 1, vs baseline), the “effects on normal bladder activity measured during saline infusion” value is on record as “minimal effects”. Besides, the “contraction rate relative to the baseline reflex contraction rate” value in assay [2] (days two and three) is “statistically significant reductions”.

These data come from US8956642B2, “Bupivacaine formulation in a polyorthoester carrier” (Medtronic, Inc., priority 2008, dated 2015).
